From patent US7049334B2, “Enhancement of learning and memory and treatment of amnesia” (priority 2001, dated 2006)

Tests used:
[1] = system: mice (motor learning); assay: Rotorod test; type: in vivo; details: i.p. 1 mg/kg 20 min before first trial, 28 rpm
Experimental: Rotorod Test: This experiment was performed with mice (male, 20–25 gm). A rotorod apparatus was a plastic cylindrical rod (3 cm in diameter×13 cm in length). The rod was supported at the ends by two walls and was 25 cm from the base of the walls. The walls at the ends of the rod were high enough so that the mice cannot climb off the rod. Three trials were performed for each experiment. Compound 1 (1 mg/kg) or vehicle was i.p. injected 20 min before the first trial. For each trial of the rotorod test, the mice were placed on the rod and timed until they fell off the rod. They were timed up to a maximum of 3 min. The interval was 10 min. The rod was turned by an electric motor at 28 rpm.
Cerebellar nitric oxide has been also reported to be involved in LTD and motor learning. See, e.g., Li et al. (1995) J. Neurophysiol. 74: 489–494. Compound 1 improving motor learning was studied. Mice were chosen for this kind of experiment. […] The performance of control mice got improvement with increasing trial numbers, with a better improvement at the third trial. […] It is obvious that Compound 1 can also improve motor learning by mainly acting on the cerebellum.

[2] = system: cortico-amygdala pathway (lateral amygdala); assay: LTP in cortico-amygdala pathway (fEPSP); type: cell-based, Wistar rats; details: three trains (100 Hz, 1 sec at 3 min interval); in the presence of compound 1; n=4
Experimental: After decapitation, brains of either adult ([…], for the induction of long-term potentiation) or young (2–3 weeks old, for the induction of long-term depression) Wistar rats were rapidly removed, and the hippocampus was dissected out. Transverse hippocampal slices (450 μm thickness) were immediately placed in an ice-cold cutting buffer containing 124 mM NaCl, 3 mM KCl, 1.0 mM Na2HPO4, 25 mM NaHCO3, 0.5 mM CaCl2, 5.0 mM MgSO4, 10 mM glucose, saturated with 95% O2 and 5% CO2. The slices were then maintained in an interface chamber at room temperature, and perfused at flow rate of 1–2 mL/min with artificial cerebrospinal fluid (ACSF). […] The test pulse duration was 100 μsec, and test responses were elicited at 0.02 Hz. To record field potentials in the cortico-amygdala pathway, a stimulating electrode was placed in the external capsule, which contained fibers from the auditory cortex to the lateral amygdala. Bicuculine (10 μM) was present in the perfusion solution when the fEPSPs of amygdala were recorded. […] Evoked fEPSPs were recorded and data were analyzed. The initial slope of the fEPSPs was calculated, and the data were expressed as percentages of the average of the base-line slope of the fEPSPs. […]

[3] = system: rats (active avoidance); assay: Active avoidance task; type: in vivo
Experimental: For the test of active avoidance, the rat was placed in the dark compartment, facing the door. The door was opened halfway, and the rat had 10 sec to shuttle over the door to lit compartment. Rat was not chosen for this experiment if the rat crossed to the safe side within 10 sec. Foot-shock was turned on at 10 s later. Rat escaped into safe compartment and the door was closed. The retention time on dark shock compartment was measured 48 hr later. The rats were discarded once the rats enter lit compartment within 10 s on the day of context training. Foot-shock was administered 10 s after putting in the dark compartment on day-1. Memory retention was tested on day-2.

[4] = system: Schaffer collateral-CA1 pathway of rat hippocampal slices; assay: LTP induction in Schaffer collateral-CA1 pathway of hippocampal slices (fEPSP slope); type: cell-based, Wistar rats; details: for fEPSP slope: 1.6 μM perfused 6 min (3 min before and 3 min after tetanus)
[5] = injection 10 min before foot-shock

OCc1ccc(-c2nn(Cc3ccccc3)c3ccccc23)o1 [Compound 1, 1-benzyl-3-(5′-hydroxymethyl-2′-furyl)-indazole]
motor coordination on a turning rotorod [1]: significantly improved motor coordination | duration of enduring LTP in amygdala [2]: at least 1 hr | memory enhancement effect induced by Compound 1, with KT5823 ([3]; KT5823 i.c.v. 0.2 nmole): effectively inhibited | memory enhancement effect induced by Compound 1, with L-NAME ([3]; L-NAME i.c.v. 1 mmole): effectively inhibited | escape latency from the shock- to the safe-compartment [3, 5]: decrease | retention of memory [3, 5]: noticeable increase | LTP when compound added after tetanus ([4]; 1.6 μM added to ACSF 10 min after 2 trains of strong tetanus (100 Hz/1 sec)): not further potentiated | fEPSP slope, simultaneous application of AP-5 and MCPG ([4]; AP-5 and MCGP applied simultaneously with Compound 1): 111.5±12.3% | LTP induced by Compound 1, concomitant perfusion with L-NAME ([4]; L-NAME 300 μM (nitric oxide synthase inhibitor)): significantly attenuated | LTP induced by Compound 1, with Zinc protoporphyrin ([4]; Zinc protoporphyrin 1 μM (heme oxygenase inhibitor)): did not affect | fEPSP ([4]; fEPSP slope 60 min after weak tetanus (50 Hz, 0.5 s), 1.6 μM perfused 3 min before and 3 min after tetanus): 172.9% | fEPSP slope ([4]; strong tetanus (two 100 Hz, 1 sec trains 20 sec apart), at 50 min after tetanus, % of base-line slope): 404.7±34.9% | fEPSP slope ([4]; weak tetanus (20 Hz, 0.5 sec train), at 1 hr): 172.9±10.7% | fEPSP slope, co-perfused with AP5 ([4]; weak tetanus (50 Hz/0.5 s), with AP5 100 μM (NMDA receptor antagonist)): 142.1±13.5% | fEPSP slope, co-perfused with KT5823 ([4]; weak tetanus (50 Hz/0.5 s), with KT 5823 2 μM (protein kinase G inhibitor)): 112.9±5.4% | fEPSP slope, co-perfused with ODQ ([4]; weak tetanus (50 Hz/0.5 s), with ODQ 5 μM (soluble guanylyl cyclase inhibitor)): 107.8±3.9% | LTP induced by Compound 1, co-perfused with MCPG ([4]; with MCPG 100 μM): reduced
